Results: patent US20150260740A1, “COMPOSITION FOR USE AS AN ABNORMAL COAGULATION CONTROL PLASMA IN IN VITRO ASSAYS” (GRIFOLS, S.A., priority 2014, published 2015)

How the values were obtained:
Type in all cases: biochemical
[1] = system: citrated normal human plasma; assay: prothrombin time (PT) haemostasis assay; conditions: for effect on percentage of PT activity versus plasma having no anticoagulant: anticoagulant added to normal plasma: ferulic acid 0.5%, 1%, 1.5%, heparin 0.1, 0.5, 1 IU/mL, EDTA 0.5, 1, 1.5 mg/mL, FIG. 1-3; for effect on PT assay: summary statement, added to normal plasma, concentration not stated (EDTA: at a certain concentration)
Experimental: (§1) To assess the effect of different anticoagulants in various haemostasis assays, different plasma compositions were prepared. Use was made of citrated normal human plasma (16 mM of citrate), stored at a temperature of below −70° C. and thawed in a bath at 37° C. HEPES was then added up to a final concentration of 40 mM and the pH was adjusted to between 7.4 and 7.6 using NaOH 1N. Various plasma compositions were prepared. No anticoagulant was added to the first composition, which was used as a control. Increasing concentrations of the anticoagulants being analysed were added to the others: ferulic acid (0.5% , 1% and 1.5%), heparin (0.1 IU/mL, 0.5 IU/mL and 1 IU/mL) and EDTA (0.5 mg/mL, 1 mg/mL, 1.5 mg/mL). Each plasma composition was analysed for the aforementioned PT, aPTT, TT and RT assays in a Q Haemostasis Analyzer (Diagnostic Grifols, Spain) using the reagents DG-PT, DG-APTT Synth, DG-TT L Human and GD-Fibroclotin of Diagnostic Grifols.
FIG. 1-3 show the results obtained in the PT assay with the various anticoagulants and plot the time obtained in the PT assay as a function of the concentration of the anticoagulant present in the plasma. The control (plasma having no anticoagulant) is shown by triangles and the compositions comprising ferulic acid, heparin and EDTA are shown by squares. […] On the other hand, ferulic acid and EDTA added to normal plasma do produce a reduction in the percentage of PT activity.

[2] = system: citrated normal human plasma; assay: thrombin time (TT) haemostasis assay; conditions: for effect on TT assay result versus plasma having no anticoagulant: anticoagulant added to normal plasma: ferulic acid 0.5%, 1%, 1.5%, heparin 0.1, 0.5, 1 IU/mL, EDTA 0.5, 1, 1.5 mg/mL, FIG. 7-9
Experimental: as §1
The same plasmas prepared in Example 1 were tested in the TT assay. FIG. 7-9 show the TT results obtained when testing the prepared plasmas.

[3] = system: citrated normal human plasma; assay: reptilase time (RT) haemostasis assay; conditions: for effect on RT assay result versus plasma having no anticoagulant: anticoagulant added to normal plasma: ferulic acid 0.5%, 1%, 1.5%, heparin 0.1, 0.5, 1 IU/mL, EDTA 0.5, 1, 1.5 mg/mL, FIG. 10-12; for effect on RT assay: summary statement, added to normal plasma, concentration not stated (EDTA: at a certain concentration)
Experimental: as §1
The same plasmas prepared in Example 1 were tested in the RT assay.

[4] = system: citrated normal human plasma; assay: activated partial thromboplastin time (aPTT) haemostasis assay; conditions: summary statement, added to normal plasma; concentration not stated (EDTA: at a certain concentration)
Experimental: as §1
The same plasmas prepared in Example 1 were tested in the aPTT assay (FIG. 4-6). […] In addition, the prolongation in the result of the assay is proportional to the amount of anticoagulant present in the plasma.

## heparin
[1]
  effect on percentage of PT activity versus plasma having no anticoagulant: has no effect on the PT assay
  effect on PT assay: does not affect the PT assay, or does so to a lesser extent
[2]
  effect on TT assay result versus plasma having no anticoagulant: do produce an abnormal TT
[3]
  effect on RT assay result versus plasma having no anticoagulant: does not prolong the RT at any of the concentrations tested
  effect on RT assay: does not prolong the RT assay
[4]
  effect on aPTT assay: prolongs the aPTT assay

## COc1cc(/C=C/C(=O)O)ccc1O [ferulic acid]
[1]
  effect on percentage of PT activity versus plasma having no anticoagulant: produce a reduction in the percentage of PT activity that is proportional to the amount of anticoagulant present in the plasma
[2]
  effect on TT assay result versus plasma having no anticoagulant: do produce an abnormal TT
[3]
  effect on RT assay result versus plasma having no anticoagulant: do produce an abnormal RT result

## O=C(O)CN(CCN(CC(=O)O)CC(=O)O)CC(=O)O [EDTA, ethylenediaminetetraacetic acid]
[1]
  effect on percentage of PT activity versus plasma having no anticoagulant: produce a reduction in the percentage of PT activity that is proportional to the amount of anticoagulant present in the plasma
  effect on PT assay: does not affect the results of PT, aPTT and TT assays, or does so very slightly
[2]
  effect on TT assay result versus plasma having no anticoagulant: does not prolong the result of the assay
[2]; summary statement, added to normal plasma, EDTA at a certain concentration
  effect on TT assay: does not affect the results of PT, aPTT and TT assays, or does so very slightly
[3]
  effect on RT assay result versus plasma having no anticoagulant: do produce an abnormal RT result
  effect on RT assay: can prolong the RT assay
[4]
  effect on aPTT assay: does not affect the results of PT, aPTT and TT assays, or does so very slightly
